{
  "source": "patent US11944624B2",
  "about": "“Peptide and small molecule agonists of EphA and their uses” (CASE WESTERN RESERVE UNIVERSITY, priority 2017, dated 2024)",
  "assay_type_in_all_cases": "cell-based",
  "key": {"[1]": {"molecular_target": "T1, endogenous EphB4 (Homo sapiens, UniProt P54760)", "T1 construct": "host or cells: HEK 293 (vector control)", "T1 sequence (P54760 16-987)": "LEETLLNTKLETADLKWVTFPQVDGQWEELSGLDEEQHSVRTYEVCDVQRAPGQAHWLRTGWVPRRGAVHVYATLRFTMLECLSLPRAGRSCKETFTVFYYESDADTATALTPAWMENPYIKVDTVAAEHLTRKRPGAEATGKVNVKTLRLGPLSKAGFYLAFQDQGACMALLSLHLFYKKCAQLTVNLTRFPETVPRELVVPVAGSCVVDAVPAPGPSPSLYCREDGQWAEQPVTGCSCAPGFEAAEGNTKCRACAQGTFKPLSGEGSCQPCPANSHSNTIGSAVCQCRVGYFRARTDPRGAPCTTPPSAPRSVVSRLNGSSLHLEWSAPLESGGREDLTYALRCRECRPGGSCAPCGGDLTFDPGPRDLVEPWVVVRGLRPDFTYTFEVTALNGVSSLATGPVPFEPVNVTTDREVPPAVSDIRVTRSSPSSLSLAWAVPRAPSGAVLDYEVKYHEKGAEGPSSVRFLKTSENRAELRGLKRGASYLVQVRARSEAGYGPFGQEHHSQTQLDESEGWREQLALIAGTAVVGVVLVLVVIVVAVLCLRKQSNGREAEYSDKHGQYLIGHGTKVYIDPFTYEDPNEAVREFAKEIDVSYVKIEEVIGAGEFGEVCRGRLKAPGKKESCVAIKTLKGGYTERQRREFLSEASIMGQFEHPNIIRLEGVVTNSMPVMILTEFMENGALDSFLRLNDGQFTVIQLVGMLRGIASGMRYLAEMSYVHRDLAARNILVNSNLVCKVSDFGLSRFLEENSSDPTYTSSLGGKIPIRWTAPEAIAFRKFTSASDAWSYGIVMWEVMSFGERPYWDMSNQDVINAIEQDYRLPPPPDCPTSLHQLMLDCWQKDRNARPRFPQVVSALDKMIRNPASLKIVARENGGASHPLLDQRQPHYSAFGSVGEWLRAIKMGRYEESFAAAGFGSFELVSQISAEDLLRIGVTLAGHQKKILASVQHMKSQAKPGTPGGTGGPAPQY", "experiment": "Endogenous EphB4 activation in HEK 293 vector control cells", "protocol": "Cells were plated in 24-well dishes at a density of 100,000 cells/well and grown for 24 hours prior to stimulation with appropriate compounds and ephrins for the given amounts of time. Compounds were prepared in DMSO at 500 times the final concentrations and 0.2% DMSO was used as vehicle control. Following treatment, cells were lysed directly in SDS Gel Loading Buffer and immunoblotted as described previously. […] For immunoprecipitation, 300,000 cells/well were plated in 6-well dishes and lysed in modified RIPA Buffer (20 mM Tris-HCl pH 7.4, 20 mM NaF, 150 mM NaCl, 10% glycerol, 0.1% SDS, 0.5% DCA, 2 mM EDTA, 1% Triton X-100) following treatment. Either 10 μg of ephrin-A1-Fc, or 4 mg of EphA2 mouse monoclonal antibody (Clone D7, Millipore) were used, and mouse IgG was used as a negative control for EphA2 IP. […] For this purpose, HEK 293 cell lines overexpressing EphA1, EphA2, EphA3, EphA4, and EphB3 kinases were utilized."}, "[2]": {"system": "A172-A2 glioma cells", "experiment": "Haptotactic cell migration toward fibronectin, A172-A2", "conditions": "A172-A2, 4 hours", "excerpt": "One of the well-established functions of Eph receptors is the ligand-dependent repulsive guidance of cell migration. As a ligand-mimicking agonist for EphA2, doxazosin is expected to activate EphA2 on tumor cells and repulse migrating tumor cells in vitro. To test this possibility, we first investigated the effects of doxazosin on integrin-mediated haptotactic cell migration toward fibronectin in a modified Boyden chamber cell migration assay. […] The inhibitory effects were observed when doxazosin was presented either in the bottom chamber, or in both top and bottom chambers in the Transwell assay system. […] Therefore, doxazosin can recapitulate a key function attributed to its native ligands, i.e., negative regulation of cell migration."}, "[3]": {"molecular_target": "EphA2 (Homo sapiens, UniProt P29317)", "sequence (P29317 24-976)": "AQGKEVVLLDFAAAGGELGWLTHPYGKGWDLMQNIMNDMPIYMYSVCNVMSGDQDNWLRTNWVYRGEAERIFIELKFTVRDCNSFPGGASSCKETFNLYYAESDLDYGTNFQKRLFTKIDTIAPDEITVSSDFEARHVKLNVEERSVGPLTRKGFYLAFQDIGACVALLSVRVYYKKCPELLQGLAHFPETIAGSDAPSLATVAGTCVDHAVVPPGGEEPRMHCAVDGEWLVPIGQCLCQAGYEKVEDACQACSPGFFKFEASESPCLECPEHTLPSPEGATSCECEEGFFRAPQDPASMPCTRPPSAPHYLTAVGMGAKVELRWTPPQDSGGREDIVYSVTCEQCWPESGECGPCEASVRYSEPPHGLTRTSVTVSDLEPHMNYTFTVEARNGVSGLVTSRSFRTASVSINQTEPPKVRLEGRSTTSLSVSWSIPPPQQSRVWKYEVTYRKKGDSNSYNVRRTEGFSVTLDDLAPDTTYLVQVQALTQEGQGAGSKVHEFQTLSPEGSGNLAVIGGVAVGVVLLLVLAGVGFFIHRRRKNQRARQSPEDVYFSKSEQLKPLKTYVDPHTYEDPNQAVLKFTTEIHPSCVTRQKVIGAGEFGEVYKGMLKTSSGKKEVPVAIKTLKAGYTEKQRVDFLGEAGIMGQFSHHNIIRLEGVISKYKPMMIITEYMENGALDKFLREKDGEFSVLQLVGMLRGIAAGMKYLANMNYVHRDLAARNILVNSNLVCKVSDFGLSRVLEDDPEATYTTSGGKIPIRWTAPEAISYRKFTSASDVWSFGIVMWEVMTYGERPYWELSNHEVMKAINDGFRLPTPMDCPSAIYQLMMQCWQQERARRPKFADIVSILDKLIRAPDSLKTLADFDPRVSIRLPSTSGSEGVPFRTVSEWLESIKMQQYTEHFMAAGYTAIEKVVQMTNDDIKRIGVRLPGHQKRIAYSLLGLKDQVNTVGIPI", "experiment": "EphA2 activation in MDA-231-A2 cells (pEphA/B immunoblot)", "parameters": "expressed in transfected cells; host or cells: MDA-MB-231 (MDA-231-A2 / MDA-MB-231-A2), puromycin selected; EphA2 activation in compound screen: dose or concentration left out as unconfirmed", "experimental": "Cells were plated in 24-well dishes at a density of 100,000 cells/well and grown for 24 hours prior to stimulation with appropriate compounds and ephrins for the given amounts of time. Compounds were prepared in DMSO at 500 times the final concentrations and 0.2% DMSO was used as vehicle control. Following treatment, cells were lysed directly in SDS Gel Loading Buffer and immunoblotted as described previously. Immunoprecipitation and immunofluorescence staining was performed as described. For immunoprecipitation, 300,000 cells/well were plated in 6-well dishes and lysed in modified RIPA Buffer (20 mM Tris-HCl pH 7.4, 20 mM NaF, 150 mM NaCl, 10% glycerol, 0.1% SDS, 0.5% DCA, 2 mM EDTA, 1% Triton X-100) following treatment. Either 10 μg of ephrin-A1-Fc, or […] of EphA2 mouse monoclonal antibody (Clone D7, Millipore) were used, and mouse IgG was used as a negative control for EphA2 IP. To identify small molecule agonists for EphA2, we took a structure-based in silico screening approach. […] This notion was confirmed recently by determination of the crystal structure of the EphA2/ephrin-A1 complex (FIG. 1B). The size falls in the range of common drugs, making EphA2 LBD a desirable target for drug discovery. Toward this end, we initiated in silico screening to search for small molecules that interact favorably with the ligand-binding pocket of EphA2 derived from molecular modeling before the crystal structure became available. Multiple conformations for each structure were generated with OMEGA (OpenEye) and each conformation was docked individually using DOCK. Our initial screening of over 750,000 compounds identified a number of small molecules that could potentially interact with the ligand-binding pocket. The commercially available top-scoring compounds were screened for their ability to induce EphA2 activation in MDAMB-231 breast cancer cells. Because MDA-MB-231 cells express endogenous EphA2 as well as other Eph receptors, including EphA1, we overexpressed EphA2 in order to minimize the contribution from other Eph receptors in our analysis. […] Total cell lysates were probed with a previously described antibody that recognizes the activated Eph receptors. […] Originally developed as an antagonist for α1-adrenoreceptor, doxazosin (FIG. 1D) is an FDA-approved drug (CARDURA) for treating hypertension and benign prostate hyperplasia (BPH). To confirm specific EphA2 activation by doxazosin, we analyzed levels of activated Eph receptor in MDA-231-A2 cells following treatment with multiple doses of doxazosin and EphA2 immunoprecipitation."}, "[4]": {"conditions": "MDA-231-A2 cells, single 50 μM dose"}},
  "data": [
    {"compound": "COc1cc2nc(N3CCN(C(=O)C4COc5ccccc5O4)CC3)nc(N)c2cc1OC", "note": "(stereo not shown) [Doxazosin, 2-[4-(2,3-Dihydro-1,4-benzodioxine-2-carbonyl)piperazin-1-yl]-6,7-dimethoxyquinazolin-4-amine]", "values": [
      {"measurement": "endogenous EphB4 activation", "setting": "[1]", "result": "endogenous EphB4 was not activated"},
      {"measurement": "haptotactic cell migration toward fibronectin", "setting": "[2]", "result": "dose-dependent inhibition of cell migration"},
      {"measurement": "EphA2 activation after phenoxybenzamine pretreatment versus no pretreatment", "setting": "[3]; MDA-231-A2 cells pretreated with 1 μM phenoxybenzamine", "result": "No difference in EphA2 activation"},
      {"measurement": "EphA2 degradation", "setting": "[3]; MDA-231-A2 cells, high doses", "result": "degradation of EphA2 following exposure to high doses of doxazosin"},
      {"measurement": "earliest time of significant EphA2 activation", "setting": "[3]; [4]", "result": 5, "unit": "min"},
      {"measurement": "time of peak EphA2 activation", "setting": "[3]; [4]", "result": "around 30 min"},
      {"measurement": "EphA2 activation in compound screen", "setting": "[3]; MDA-231-A2 cells, total cell lysates", "result": "activated EphA2 to the greatest extent"}
    ]}
  ]
}
